Source: the supplement of paper PMC10307832

Assays:
Assay in all cases: relative viability (nuclei count vs DMSO), 5 days (fraction); higher = more cells survive
NCI-H1975 = tested on: NCI-H1975
In short: (§1)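 One day after seeding in 1536-well plates, lung cancer cell lines were dosed by pin tool. Dosing was either single-drug or a fixed anchor-drug dose plus five library-drug doses (not always all listed) in √10 steps. After 5 days, nuclei were stained in one fix-and-stain step and counted on 4× images, and relative viability is the nuclei count of treated wells over that of vehicle wells, given as the median of duplicate plates.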

NCI-H1944 = tested on: NCI-H1944
In short: as §1

NCI-H2126 = tested on: NCI-H2126
In short: as §1

NCI-H1666 = tested on: NCI-H1666
In short: as §1

LCLC-97TM1 = tested on: LCLC-97TM1
In short: as §1

EMC-BAC-2 = tested on: EMC-BAC-2
In short: as §1

NCI-H1993 = tested on: NCI-H1993
In short: as §1

NCI-H1755 = tested on: NCI-H1755
In short: as §1

NCI-H2170 = tested on: NCI-H2170
In short: as §1

NCI-H520 = tested on: NCI-H520
In short: as §1

NCI-H1793 = tested on: NCI-H1793
In short: as §1

NCI-H2009 = tested on: NCI-H2009
In short: as §1

O=C(O)CCCCC(CCSCc1ccccc1)SCc1ccccc1 (configuration not stated) [CPI-613] + COc1cccc2cc(-c3nc([C@H]4CC[C@H](C(=O)O)CC4)n4ncnc(N)c34)[nH]c12 [OSI-027] (partner 0.5 µM)
relative viability (NCI-H1975; first compound 5 µM): 0.693
relative viability (NCI-H1975; first compound 15.81 µM): 0.589
relative viability (NCI-H1975; first compound 50 µM): 0.741
relative viability (NCI-H1975; first compound 158.11 µM): 0.245
relative viability (NCI-H1975; first compound 500 µM): 0.0526
relative viability (NCI-H1944; first compound 5 µM): 0.391
relative viability (NCI-H1944; first compound 15.81 µM): 0.388
relative viability (NCI-H1944; first compound 50 µM): 0.351
relative viability (NCI-H1944; first compound 158.11 µM): 0.274
relative viability (NCI-H1944; first compound 500 µM): 0.0492
relative viability (NCI-H2126; first compound 5 µM): 0.66
relative viability (NCI-H2126; first compound 15.81 µM): 0.643
relative viability (NCI-H2126; first compound 50 µM): 0.7
relative viability (NCI-H2126; first compound 158.11 µM): 0.448
relative viability (NCI-H2126; first compound 500 µM): 0.63
relative viability (NCI-H1666; first compound 5 µM): 0.866
relative viability (NCI-H1666; first compound 15.81 µM): 0.856
relative viability (NCI-H1666; first compound 50 µM): 0.798
relative viability (NCI-H1666; first compound 158.11 µM): 0.281
relative viability (NCI-H1666; first compound 500 µM): 0.151
relative viability (LCLC-97TM1; first compound 5 µM): 0.508
relative viability (LCLC-97TM1; first compound 15.81 µM): 0.519
relative viability (LCLC-97TM1; first compound 50 µM): 0.67
relative viability (LCLC-97TM1; first compound 158.11 µM): 0.474
relative viability (LCLC-97TM1; first compound 500 µM): 0.0503
relative viability (EMC-BAC-2; first compound 5 µM): 0.385
relative viability (EMC-BAC-2; first compound 15.81 µM): 0.334
relative viability (EMC-BAC-2; first compound 50 µM): 0.337
relative viability (EMC-BAC-2; first compound 158.11 µM): 0.181
relative viability (EMC-BAC-2; first compound 500 µM): 0.0272
relative viability (NCI-H1993; first compound 5 µM): 0.531
relative viability (NCI-H1993; first compound 15.81 µM): 0.572
relative viability (NCI-H1993; first compound 50 µM): 0.567
relative viability (NCI-H1993; first compound 158.11 µM): 0.46
relative viability (NCI-H1993; first compound 500 µM): 0.375
relative viability (NCI-H1755; first compound 5 µM): 0.693
relative viability (NCI-H1755; first compound 15.81 µM): 0.687
relative viability (NCI-H1755; first compound 50 µM): 0.66
relative viability (NCI-H1755; first compound 158.11 µM): 0.504
relative viability (NCI-H1755; first compound 500 µM): 0.207
relative viability (NCI-H2170; first compound 5 µM): 0.718
relative viability (NCI-H2170; first compound 15.81 µM): 0.715
relative viability (NCI-H2170; first compound 50 µM): 0.662
relative viability (NCI-H2170; first compound 158.11 µM): 0.482
relative viability (NCI-H2170; first compound 500 µM): 0.101
relative viability (NCI-H520; first compound 5 µM): 0.268
relative viability (NCI-H520; first compound 15.81 µM): 0.243
relative viability (NCI-H520; first compound 50 µM): 0.208
relative viability (NCI-H520; first compound 158.11 µM): 0.179
relative viability (NCI-H520; first compound 500 µM): 0.141
relative viability (NCI-H1793; first compound 5 µM): 0.277
relative viability (NCI-H1793; first compound 15.81 µM): 0.241
relative viability (NCI-H1793; first compound 50 µM): 0.245
relative viability (NCI-H1793; first compound 158.11 µM): 0.171
relative viability (NCI-H1793; first compound 500 µM): 0.0629
relative viability (NCI-H2009; first compound 5 µM): 0.599
relative viability (NCI-H2009; first compound 15.81 µM): 0.58
